Experimental data from patent US20220264887A1, “Foam Formulations For Decontamination Of Surfaces With Minimum Wastewater” (The Trustees of Columbia University in the City of New York, priority 2020, published 2022).

Experiments:
Format in all cases: physicochemical
[1] = Surface tension / CMC of surfactants and mixtures by tensiometer, with and without hypochlorite; conditions: for No hypochlorite (CMC): after 24 hours of preparation; for change of CMC value in the presence of hypochlorite: presence vs absence of hypochlorite
Experimental: Thus, the foam formulations were stable in terms of surfactants retaining their surface activity for the foam-deployment-on-surface application.
The surface tension values for pure surfactants and their mixtures—formulations—were determined in the presence and absence of hypochlorite (Table 1). […] The surface tension values for CAPB, taurate, SDS, and surfactin determined after 24 hours of preparation of these solutions, and in the absence and presence of hypochlorite are given in Table 1 and FIGS. 1, 2, and 3; Taurate was used for fundamental reasons and was not considered in preparing the final formulation(s). (The surface tension values were determined using a tensiometer.)
(§1) The CMC values for these surfactants in the absence of hypochlorite, were as reported in the literature. […] A chlorine strip was used to determine hypochlorite degradation.

[2] = Raman microscopy of hypochlorite degradation (ClO-/ClO4- peak ratio); conditions: freshly prepared 1% solution in water
Excerpt: To monitor degradation of hypochlorite in the formulations (liquids), foams, and deposit residues, one can use Raman microscopy. Raman spectra were acquired using a Horiba Aramis confocal Raman microscope with a 10× objective (numerical aperture 0.25), a 1200 grooves/mm diffraction grating, and a 17-mW 633-nm HeNe laser without attenuation. The monochromator was calibrated before each set of measurements using the Si peak at 520.7 cm-1 of a Si wafer reference sample.
The degradation of hypochlorite ion (ClO—) was assessed by the intensity ratio of the main Raman peaks of ClO— at 715 cm-1 and perchlorate ClO4- at 937 cm-1 (FIG. 8). Perchlorate is a product of the final degradation of hypochlorite.

[3] = Hypochlorite degradation in formulation by chlorine strip; conditions: after 24 hrs
Excerpt: as §1

[4] = presence of hypochlorite 0.7-1 wt. % CL

Molecule | Min surface tension ([1]; absence of hypochlorite) [mN/m] | No hypochlorite (CMC) ([1]; absence of hypochlorite) [g/L] | 0.7-1% hypochlorite (CMC) [1, 4] [g/L] | Min surface tension [1, 4] [mN/m] | change of CMC value in the presence of hypochlorite [1] | ClO-/ClO4- Raman peak ratio [2] | fraction of hypochlorite already degraded ([2]; from peak ratio) | decrease of hypochlorite concentration in the formulation [3]
cocamidopropyl betaine [CAPB] | 28 | 0.3 | 0.31 | 28 | a small decrease or no change | – | – | –
[Na+].[O-]Cl [hypochlorite, sodium hypochlorite] | – | – | – | – | – | about 2 | about 30% | 30-40%
NCCS(=O)(=O)O [Taurate] | – | – | – | – | increased slightly | – | – | –
CCCCCCCCCCCCOS(=O)(=O)[O-].[Na+] [SDS, Sodium dodecyl sulfate] | 28 | 2.4 | 2.6 | 28 | increased slightly | – | – | –
